From patent publication US8497371B2, “Pipemidic acid derivative autotaxin inhibitors” (University of Memphis Research Foundation, priority 2009, dated 2013)

Tests used:
ATX [1] = biological target: T1, ATX (Homo sapiens, UniProt Q13822); conditions: for Inhibition Mechanism: FS-3 substrate
human NPP6 = biological target: T2, human NPP6 (Homo sapiens, UniProt Q6UWR7); experiment: Determination of NPP6 inhibition (pNPPC substrate); type: biochemical; conditions: 10 μM inhibitor
T2 construct: transfected with human NPP6ex^51 or human NPP7ex expression plasmids; made in house; host or cells: HEK293 cells, transient transfection, pcDNA3.1(+); unconcentrated conditioned medium (CM)
T2 sequence (Q6UWR7 23-419 limits assumed): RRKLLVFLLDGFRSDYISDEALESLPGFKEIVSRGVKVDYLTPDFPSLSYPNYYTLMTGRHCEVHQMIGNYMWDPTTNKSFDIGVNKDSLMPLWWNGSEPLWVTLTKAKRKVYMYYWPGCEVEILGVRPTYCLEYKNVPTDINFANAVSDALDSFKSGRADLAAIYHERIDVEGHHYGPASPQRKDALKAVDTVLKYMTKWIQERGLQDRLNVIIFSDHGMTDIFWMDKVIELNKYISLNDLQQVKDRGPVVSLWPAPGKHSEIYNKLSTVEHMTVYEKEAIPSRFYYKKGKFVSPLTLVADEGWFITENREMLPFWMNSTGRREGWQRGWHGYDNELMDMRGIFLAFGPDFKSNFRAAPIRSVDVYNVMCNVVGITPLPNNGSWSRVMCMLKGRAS
Method: (§1) Inhibitor selectivity was assayed using p-nitrophenylphosphoryl-choline (pNPPC) (Sigma-Aldrich, St. Louis, Mo.) as substrate for NPP6 and NPP7. The final volume (60 μL) included 20 μL (CM, NPP6 or CCM, NPP7, 20 μL inhibitor (10 μM including 1% DMSO) in assay buffer, and 20 μL pNPPC (10 mM, NPP6 or 1 NPP7) in assay buffer. NPP6 assay buffer contained 500 mM NaCl, 0.05% Triton X-100, 100 mM Tris-HCl (pH 9.0), whereas NPP7 assay buffer was comprised of 50 mM Tris HCl, pH 8.5, 150 mM NaCl, and 10 mM taurocholic acid. However, unlike the published methods, EDTA was not added to the NPP7 assay buffer. All assays were performed in 96-well, half area plates (Corning Inc., Lowell, Mass.) at 37° C. with data collected at 2 minute intervals using a Synergy2 absorbance plate reader (BioTek, Winooski, Vt.). Results are shown at the one hour time point, when all absorbance changes as a function of time were linear. Readings were normalized to vehicle control after subtraction of absorbance in the absence of CM or CCM. Data are shown as the mean±S.D. of at least three wells. All experiments were repeated twice and representative results are shown.
(§2) Assays were performed with CM or CCM from HEK293 cells transiently transfected with NPP6 and 7 expression plasmids, respectively. HEK293 cells were seeded in Dulbecco's modified Eagle's medium (DMEM) containing 10% fetal bovine serum, 100 U/ml penicillin, 100 μg/ml streptomycin (Hyclone, Logan, Utah), and 2 mM L-glutamine. HEK293 cells were grown overnight at 37° C. under 5% CO2 to 80% confluence. The cells were then transfected with human NPP6ex^51 or human NPP7ex expression plasmids in the pcDNA3.1(+) mammalian vector in the presence of Polyfect Transfection Reagent (Hyclone, Logan, Utah). Six hours after transfection, the culture medium was changed to serum free DMEM containing L-glutamine and cells were incubated for 48 hours. Expressed protein was collected (NPP6 and NPP7) and concentrated ˜10×(NPP7) using 10 kDa molecular weight cutoff filters (Millipore, Beverly, Mass.) in an Amicon pressure cell (Millipore, Beverly, Mass.).

human NPP7 = biological target: T3, human NPP7 (Homo sapiens, UniProt Q6UWV6); experiment: Determination of NPP7 inhibition (pNPPC substrate); type: biochemical; conditions: 10 μM inhibitor
T3 construct: transfected with human NPP6ex^51 or human NPP7ex expression plasmids; made in house; host or cells: HEK293 cells, transient transfection, pcDNA3.1(+); conditioned medium concentrated about 10x (CCM)
T3 sequence (Q6UWV6 22-433 limits assumed): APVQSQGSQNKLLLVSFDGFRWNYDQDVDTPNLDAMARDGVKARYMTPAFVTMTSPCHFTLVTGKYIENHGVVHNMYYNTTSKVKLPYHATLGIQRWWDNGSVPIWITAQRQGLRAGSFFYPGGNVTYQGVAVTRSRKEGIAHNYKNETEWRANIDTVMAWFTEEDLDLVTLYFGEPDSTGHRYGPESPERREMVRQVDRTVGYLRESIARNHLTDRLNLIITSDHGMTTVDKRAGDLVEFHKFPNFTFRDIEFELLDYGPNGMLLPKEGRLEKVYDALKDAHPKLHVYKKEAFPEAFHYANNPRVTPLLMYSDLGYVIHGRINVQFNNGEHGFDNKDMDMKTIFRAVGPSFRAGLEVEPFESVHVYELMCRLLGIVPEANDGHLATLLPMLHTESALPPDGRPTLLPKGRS
Method: as §1, §2

ATX [2] = biological target: T1, ATX; experiment: ATX inhibition assay with FS-3 substrate; type: biochemical; parameters: conditioned serum-free medium (CCM) from MDA-MB-435 cells as the source of ATX; endogenous in cells; host or cells: MDA-MB-435 cells (about 10x concentrated serum-free conditioned medium); conditions: for % Response at 10 μM (FS-3): 10 μM compound, FS-3 hydrolysis normalized to vehicle control (low = strong inhibition), mean ± S.D.; for single dose response comparison by aromatic substituent and position: Table 2, same values as % Response at 10 μM; for inhibition at 10 µM: single dose 10 μM, % inhibition, read-out: inhibition of ATX-mediated hydrolysis of FS-3
Method: ATX inhibition was assayed using the substrate FS-3 (Echelon Biosciences, Inc., Salt Lake City, Utah, USA). The FS-3 assay used ˜10 times concentrated conditioned serum-free medium (CCM) from MDA-MB-435 cells as the source of ATX, while CCM comprised one-third of the total volume.
All assays were performed in 96-well plates with data read at 1 minute intervals by a Synergy2 system (BioTek, Winooski, Vt.). […] Results are shown at one hour, at which point all fluorescence and absorbance changes as a function of time were linear. All readings were normalized to vehicle control after subtraction of fluorescence in the absence of CCM. Data are shown as the mean±S.D. of at least three wells. All experiments were repeated at least twice and results are shown.

ATX [3] = biological target: T1, ATX; experiment: biochemical
[4] = Ki (nM), competitive inhibitors
[5] = Ki (μM), FS-3 substrate, for mixed mode Ki=IC50 assumed

Compound | mechanism of ATX inhibition (ATX [1]) | Inhibition Mechanism (ATX [1]) | effect on activity of NPP6 (human NPP6) | effect on activity of NPP7 (human NPP7) | % Response at 10 μM (FS-3) (ATX [2]) | single dose response comparison by aromatic substituent and position (ATX [2]) | inhibition at 10 µM (ATX [2]) | Ki (ATX [3]; [4]) | Ki (ATX [3]; [5]) | potency relative to the lead compound (ATX [1]) | IC50 (ATX [2]; FS-3 substrate) | IC50 (ATX [2]; Substrate FS-3 (1 μM)) | Ki (ATX [3]; Ki)
CCn1cc(C(=O)O)c(=O)c2cnc(N3CCN(C(=S)Nc4ccc(I)cc4)CC3)nc21 [Compound 3, 2-(4-{[(4-iodophenyl)amino]carbonothioyl}-1-piperazinyl)-8-ethyl-5-oxo-5,8-dihydropyrido[2,3-d]pyrimidine-6-carboxylic acid] | mixed-mode | Mixed | None of the compounds affected the activity | None of the compounds affected the activity | 32.7 ± 1.3% | 32.7 ± 1.3 | ≥ 50% | – | – | – | – | – | –
CCn1cc(C(=O)O)c(=O)c2cnc(N3CCN(C(=S)Nc4ccc5nsnc5c4)CC3)nc21 [Compound 7, 2-(4-{[(3-benzothiadiazolphenyl)amino]carbonothioyl}-1-piperazinyl)-8-ethyl-5-oxo-5,8-dihydropyrido[2,3-d]pyrimidine-6-carboxylic acid] | competitive | Competitive | None of the compounds affected the activity | None of the compounds affected the activity | 28.6 ± 2.0% | – | ≥ 50% | 30 to 430 nM | 430 nM | at least as potent as the lead compound | 12.1 ± 2.4 µM | 12.1 µM | –
CCn1cc(C(=O)O)c(=O)c2cnc(N3CCN(C(=S)Nc4cccc(C(F)(F)F)c4)CC3)nc21 [Compound 11, 2-(4-{[(3-trifluoromethylphenyl)amino]carbonothioyl}-1-piperazinyl)-8-ethyl-5-oxo-5,8-dihydropyrido[2,3-d]pyrimidine-6-carboxylic acid] | competitive | Competitive | None of the compounds affected the activity | None of the compounds affected the activity | 0.3 ± 0.6% | 0.3 ± 0.6 | – | 30 to 430 nM | – | at least as potent as the lead compound | 0.9 ± 0.3 µM | 0.9 ± 0.3 µM | 30 nM
CCn1cc(C(=O)O)c(=O)c2cnc(N3CCN(C(=S)Nc4cccc(C)c4)CC3)nc21 [Compound 13, 2-(4-{[(3-methylphenyl)amino]carbonothioyl}-1-piperazinyl)-8-ethyl-5-oxo-5,8-dihydropyrido[2,3-d]pyrimidine-6-carboxylic acid] | mixed-mode | Mixed | None of the compounds affected the activity | None of the compounds affected the activity | 41.9 ± 0.8% | – | ≥ 50% | – | 13500 nM | as potent as or significantly less potent than the lead | 13.5 ± 1.3 µM | – | 1700 to 13500 nM
CCn1cc(C(=O)O)c(=O)c2cnc(N3CCN(C(=S)Nc4cc(C(F)(F)F)cc(C(F)(F)F)c4)CC3)nc21 [Compound 18, 2-(4-{[(3,5-bis(trifluoromethyl)phenyl)amino]carbonothioyl}-1-piperazinyl)-8-ethyl-5-oxo-5,8-dihydropyrido[2,3-d]pyrimidine-6-carboxylic acid] | competitive | Competitive | None of the compounds affected the activity | None of the compounds affected the activity | 34.1 ± 3.0% | – | ≥ 50% | 30 to 430 nM | – | at least as potent as the lead compound | 4.4 ± 1.5 µM | 4.4 ± 1.5 µM | 160 nM
CCn1cc(C(=O)O)c(=O)c2cnc(N3CCN(C(=S)Nc4ccc(F)cc4)CC3)nc21 [Compound 23, 2-(4-{[(4-fluorophenyl)amino]carbonothioyl}-1-piperazinyl)-8-ethyl-5-oxo-5,8-dihydropyrido[2,3-d]pyrimidine-6-carboxylic acid] | – | – | None of the compounds affected the activity | None of the compounds affected the activity | 48.9 ± 1.1% | 48.9 ± 1.1 | ≥ 50% | – | – | – | 17.7 µM | – | –
CCn1cc(C(=O)O)c(=O)c2cnc(N3CCN(C(=S)Nc4cccc(F)c4)CC3)nc21 [Compound 25, 2-(4-{[(3-fluorophenyl)amino]carbonothioyl}-1-piperazinyl)-8-ethyl-5-oxo-5,8-dihydropyrido[2,3-d]pyrimidine-6-carboxylic acid] | – | – | None of the compounds affected the activity | None of the compounds affected the activity | 40.5 ± 1.0% | 40.5 ± 1.0 | ≥ 50% | – | – | – | 16.1 ± 4.5 µM | – | –
CCn1cc(C(=O)O)c(=O)c2cnc(N3CCN(C(=S)Nc4ccc(C)cc4)CC3)nc21 [Compound 27, 2-(4-{[(4-methylphenyl)amino]carbonothioyl}-1-piperazinyl)-8-ethyl-5-oxo-5,8-dihydropyrido[2,3-d]pyrimidine-6-carboxylic acid] | – | – | None of the compounds affected the activity | None of the compounds affected the activity | 49.9 ± 1.5% | – | ≥ 50% | – | – | – | 16.1 ± 4 µM | – | –
CCn1cc(C(=O)O)c(=O)c2cnc(N3CCN(C(=S)Nc4cccc(I)c4)CC3)nc21 [Compound 29, 2-(4-{[(3-iodophenyl)amino]carbonothioyl}-1-piperazinyl)-8-ethyl-5-oxo-5,8-dihydropyrido[2,3-d]pyrimidine-6-carboxylic acid] | uncompetitive | Uncompetitive | None of the compounds affected the activity | None of the compounds affected the activity | 8.6 ± 0.9% | 8.6 ± 0.9 | ≥ 50% | – | – | – | – | – | –
